Assay results from patent publication US20240287089A1, “Preparation and Uses of 7-Azaindenoisoquinolines” (Purdue Research Foundation, priority 0001, published 2024).
Where two headings read alike, the source gives them in different places.

Assays:
Caco-2 cells = assay: Caco-2 permeability; assay type: in vitro ADME
Method: Caco-2 Permeability Studies. The Caco-2 plate was removed from the incubator and washed twice with pre-warmed HBSS (10 mM HEPES, pH 7.4), and then incubated at 37° C. for 30 min. The stock solutions of controls compounds were diluted in DMSO to get 1 mM solutions and then diluted with HBSS (10 mM HEPES, pH 7.4) to get 5 μM working solutions. The stock solutions of the test compounds were diluted in DMSO to get 1 mM solutions and then diluted with HBSS (10 mM HEPES, pH 7.4) to get 5 μM working solutions. The final concentration of DMSO in the incubation system was 0.5%. To determine the rate of drug transport in the apical to basolateral direction, 75 μL of 5 μM working solutions of test compounds was added to the Transwell insert (apical compartment) and the wells in the receiver plate (basolateral compartment) were filled with 235 μL of HBSS (10 mM HEPES, pH 7.4). To determine the rate of drug transport in the basolateral to apical direction, 235 μL of 5 μM working solutions of test compounds were to the receiver plate wells (basolateral compartment) and then the Transwell inserts (apical compartment) were filled with 75 μL of HBSS (10 mM HEPES, pH 7.4). Time 0 samples were prepared by transferring 50 μL of 5 μM working solution to wells of the 96-deepwell plate, followed by the addition of 200 μL cold methanol containing appropriate internal standards (IS). The plates were incubated at 37° C. for 2 h. […] An aliquot of 100 μL of the supernatant was mixed with an appropriate volume of ultra-pure water before LC-MS/MS analysis. To determine the Lucifer Yellow leakage after 2 h transport period, stock solution of Lucifer yellow was prepared in ultra-pure water and diluted with HBSS (10 mM HEPES, pH 7.4) to reach the final concentration of 100 μM and then 100 μL of the Lucifer yellow solution was added to each Transwell insert (apical compartment), followed by filling the wells in the receiver plate (basolateral compartment) with 300 μL of HBSS (10 mM HEPES, pH 7.4). The plates were incubated at 37° C. for 30 minutes. Samples (80 μL) were removed directly from the apical and basolateral wells (using the basolateral access holes) and transferred to wells of new 96 wells plates.

[1] = Maximum tolerated dose determination in NOD SCID mice; assay type: in vivo; conditions: QD x 5; for Body Weight %: 7 days after first dose
Method: Maximum Tolerated Dose Determinations. […]. […] Experiments involving 100 mg/kg doses of all three drugs were terminated after one day because of toxicity, while the study involving 50 mg/kg dose of G105 was also halted after one day (FIG. 12). Similarly, the investigation with a 40 mg/kg dose of G105 was discontinued after two days (FIG. 13).

c-Myc [2] = assay: Western blot of RS4;11 tumor xenograft tissue; assay type: in vivo, human
From the text: (§1) In several cases, the levels of c-Myc were more greatly depressed at the lower dose level. For examples, see the 9-hour data for G104 in Tables 17 and 18 and the 6-hour data in Table 19. […] Overall, there are many unexpected and unexplained aspects of the data in Tables 17-19, which are highly variable and also highly dependent on cell type. In particular, drug-induced increases in c-Myc expression relative to control and the larger changes in c-Myc expression seen at lower vs. higher doses are counterintuitive and unexplained.

γ-H2AX [3] = assay: Western blot of RS4;11 tumor xenograft tissue; assay type: in vivo, human
c-Myc [4] = assay: Western blot of MOLT-4 tumor xenograft tissue; assay type: in vivo, human
γ-H2AX [5] = assay: Western blot of MOLT-4 tumor xenograft tissue; assay type: in vivo, human
From the text: as §1

c-Myc [6] = assay: Western blot of RD-ES tumor xenograft tissue; assay type: in vivo, human
From the text: as §1

γ-H2AX [7] = assay: Western blot of RD-ES tumor xenograft tissue; assay type: in vivo, human
From the text: as §1

DU-145 (Prostate) = assay: NCI-60 cytotoxicity assay; assay type: cell-based, human; conditions: Prostate DU-145, 48 h, read-out: Cytotoxicity GI50
In short: (§2)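 Five concentrations from 100 μM to 10 nM, 48 h exposure. Growth measured by sulforhodamine B staining and percentage growth plotted against log concentration to give GI50. MGM is the approximate mean GI50 across the full NCI-60 panel.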

HCT-116 (Colon) = assay: NCI-60 cytotoxicity assay; assay type: cell-based, human; conditions: Colon HCT-116, 48 h, read-out: Cytotoxicity GI50
In short: as §2

HOP-62 (Lung) = assay: NCI-60 cytotoxicity assay; assay type: cell-based, human; conditions: Lung HOP-62, 48 h, read-out: Cytotoxicity GI50
In short: as §2

MCF7 (Breast) = assay: NCI-60 cytotoxicity assay; assay type: cell-based, human; conditions: Breast MCF7, 48 h, read-out: Cytotoxicity GI50
In short: as §2

OVCAR-3 (Ovarian) = assay: NCI-60 cytotoxicity assay; assay type: cell-based, human; conditions: Ovarian OVCAR-3, 48 h, read-out: Cytotoxicity GI50
In short: as §2

SN12C (Renal) = assay: NCI-60 cytotoxicity assay; assay type: cell-based, human; conditions: Renal SN12C, 48 h, read-out: Cytotoxicity GI50
In short: as §2

UACC-62 (Melanoma) = assay: NCI-60 cytotoxicity assay; assay type: cell-based, human; conditions: Melanoma UACC-62, 48 h, read-out: Cytotoxicity GI50
In short: as §2

SF-539 (CNS) = assay: NCI-60 cytotoxicity assay; assay type: cell-based; conditions: Homo sapiens; CNS SF-539, 48 h; read-out: Cytotoxicity GI50
In short: as §2

NCI-60 cancer cell lines = assay: NCI-60 cytotoxicity assay, MGM; assay type: cell-based; conditions: Homo sapiens; read-out: MGM (average GI50 across NCI-60 panel)
In short: as §2

[8] = human, 1 μM
Method: Analysis of Plasma Protein Binding and Stability in Human and Mouse Blood Plasma by Equilibrium Dialysis. Frozen plasma (stored at −80° C.) was thawed immediately in a 37° C. water bath. The working solutions of test compound and control compound were prepared in DMSO at 200 μM concentration, and the working solutions were spiked into plasma. The final concentration of compound was 1 μM. The final concentration of DMSO was 0.5%. Ketoconazole was used as positive control in the assay. The dialysis membranes were soaked in ultrapure water for 60 min to separate strips, then in 20% ethanol for 20 min, and then finally in dialysis buffer for 20 min. For equilibrium dialysis, each cell contained plasma sample (150 μL) and was dialyzed against an equal volume of dialysis buffer (PBS). The assay was performed in duplicate. The dialysis plate was sealed and incubated at 37° C. with 5% CO2 at 100 rpm for 6 h. At the end of incubation, samples (50 μL) from both buffer and plasma chambers were transferred to wells of a 96-well plate. Plasma (50 μL) was added to each buffer sample and an equal volume of PBS was added to the collected plasma sample. Cold acetonitrile (400 μL) containing internal standards (IS, 100 nM alprazolam, 200 nM labetalol, 200 nM imipramine and 2 μM ketoprofen) was added to precipitate protein and release compounds. Samples were vortexed for 2 min and centrifuged for 30 min at 3,220 g. An aliquot (100 μL) of the supernatant was diluted with ultra-pure H2O (100 μL), and the mixture was used for LC-MS/MS analysis. For stability determination in plasma, a spiked plasma sample (50 μL) was transferred to a new plate and incubated at 37° C., 5% CO2 for 0 and 6 h. At designated time points, PBS (50 μL) was added and mixed thoroughly, followed by the addition of room temperature quench solution [400 μL of acetonitrile containing internal standards (IS, 100 nM alprazolam, 200 nM labetalol, 200 nM imipramine and 2 μM ketoprofen)] to precipitate protein and release compounds. Samples were vortexed for 2 min and centrifuged for 30 min at 3,220 g. An aliquot (400 μL) of the supernatant was diluted by ultra-pure H2O, and the mixture was used for LC-MS/MS analysis. The concentrations of test compounds in the buffer and plasma chambers were determined from peak area ratios.

in vivo = conditions: male, CD1, mouse, iv, 20 mg/kg
Method: Brain Penetration Studies. […] The concentrations were determined by LC-MS/MS with direct measurement of the plasma samples. The brain tissue was homogenized with water using a 3:1 ratio of water (mL) to brain (g) before determination of the concentrations (ng/mL) in the brain homogenates, and the homogenate values then were multiplied by a factor of 4 to obtain the brain concentrations (ng/g).

In the case of `COc1cc2c3c(n(CCCNCCO)c(=O)c2cc1OC)-c1nc2c(cc1C3=O)OCO2` [G105, 6-(3-((2-Hydroxyethyl)amino)propyl)-2,3-dimethoxy-5H-[1,3]dioxolo[4″,5″:5′,6′]pyrido[3′,2′:4,5]cyclopenta[1,2-c]isoquinoline-5,12(6H)-dione], the “Efflux Ratio” value (Caco-2 cells; Caco-2) is reported as 7.60, the “Recovery (%)AP-BL” value (Caco-2 cells; Caco-2) is reported as 75.07% and the “Recovery (%)BL-AP” value (Caco-2 cells; Caco-2) is reported as 95.77%. For the same molecule, the “Papp (A→B)” value (Caco-2 cells; Caco-2, 5 μM, 2 h) was 2.39 10^−6, cm/s, the “Papp (B→A)” value (Caco-2 cells; Caco-2, 5 μM, 2 h) was 18.16 10^−6, cm/s and the “Body Weight %” value ([1]; 5 mg/Kg IV) was 97.2%. The “Body Weight %” value ([1]; 10 mg/Kg IV) was 95.5%, the “Body Weight %” value ([1]; 15 mg/Kg IV) was 79.2% and the “Body Weight %” value ([1]; 20 mg/Kg IV) was 82%. For the same molecule, the “Body Weight %” value ([1]; 30 mg/Kg IV) was 74.7%, the “Maximum tolerated dose (MTD)” value ([1]; NOD SCID mice, IV, body weight % ≥80%) was 20 mg/kg and the “c-Myc/GAPDH, % Relative to Vehicle” value (c-Myc [2]; RS4;11, IV 10 mg/kg, 3 h) was 102.74 ± 3.45%. The “c-Myc/GAPDH, % Relative to Vehicle” value (c-Myc [2]; RS4;11, IV 10 mg/kg, 9 h) was 74.98 ± 3.52%, the “c-Myc/GAPDH, % Relative to Vehicle” value (c-Myc [2]; RS4;11, IV 20 mg/kg, 3 h) was 100.30 ± 16.76% and the “c-Myc/GAPDH, % Relative to Vehicle” value (c-Myc [2]; RS4;11, IV 20 mg/kg, 9 h) was 80.45 ± 3.93%. For the same molecule, the “γ-H2AX/GAPDH, % Relative to Vehicle” value (γ-H2AX [3]; RS4;11, IV 10 mg/kg, 3 h) was 67.00 ± 2.90%, the “γ-H2AX/GAPDH, % Relative to Vehicle” value (γ-H2AX [3]; RS4;11, IV 10 mg/kg, 9 h) was 166.37 ± 40.45% and the “γ-H2AX/GAPDH, % Relative to Vehicle” value (γ-H2AX [3]; RS4;11, IV 20 mg/kg, 3 h) was 219.29 ± 82.49%. For the same molecule, the “γ-H2AX/GAPDH, % Relative to Vehicle” value (γ-H2AX [3]; RS4;11, IV 20 mg/kg, 9 h) was 540.94 ± 97.90%, the “c-Myc/GAPDH, % Relative to Vehicle” value (c-Myc [4]; MOLT-4, IV 10 mg/kg, 3 h) was 110.56 ± 4.90% and the “c-Myc/GAPDH, % Relative to Vehicle” value (c-Myc [4]; MOLT-4, IV 10 mg/kg, 9 h) was 84.53 ± 6.26%. The “c-Myc/GAPDH, % Relative to Vehicle” value (c-Myc [4]; MOLT-4, IV 20 mg/kg, 3 h) was 96.74 ± 9.71%, the “c-Myc/GAPDH, % Relative to Vehicle” value (c-Myc [4]; MOLT-4, IV 20 mg/kg, 9 h) was 83.89 ± 10.06% and the “γ-H2AX/GAPDH, % Relative to Vehicle” value (γ-H2AX [5]; MOLT-4, IV 10 mg/kg, 3 h) was 60.98 ± 8.93%. For the same molecule, the “γ-H2AX/GAPDH, % Relative to Vehicle” value (γ-H2AX [5]; MOLT-4, IV 10 mg/kg, 9 h) was 172.03 ± 47.41%, the “γ-H2AX/GAPDH, % Relative to Vehicle” value (γ-H2AX [5]; MOLT-4, IV 20 mg/kg, 3 h) was 56.62 ± 11.87% and the “γ-H2AX/GAPDH, % Relative to Vehicle” value (γ-H2AX [5]; MOLT-4, IV 20 mg/kg, 9 h) was 109.66 ± 28.34%. For the same molecule, the “c-Myc/GAPDH, % Relative to Vehicle” value (c-Myc [6]; IV 10 mg/kg, 3 h) was 128.18 ± 13.67%, the “c-Myc/GAPDH, % Relative to Vehicle” value (c-Myc [6]; IV 10 mg/kg, 6 h) was 69.45 ± 15.02% and the “c-Myc/GAPDH, % Relative to Vehicle” value (c-Myc [6]; IV 20 mg/kg, 3 h) was 154.98 ± 17.80%. For the same molecule, the “c-Myc/GAPDH, % Relative to Vehicle” value (c-Myc [6]; IV 20 mg/kg, 6 h) was 71.97 ± 14.55%, the “γ-H2AX/GAPDH, % Relative to Vehicle” value (γ-H2AX [7]; IV 10 mg/kg, 3 h) was 145.80 ± 32.79% and the “γ-H2AX/GAPDH, % Relative to Vehicle” value (γ-H2AX [7]; IV 10 mg/kg, 6 h) was 111.73 ± 14.44%. The “γ-H2AX/GAPDH, % Relative to Vehicle” value (γ-H2AX [7]; IV 20 mg/kg, 3 h) was 134.62 ± 18.03%, the “γ-H2AX/GAPDH, % Relative to Vehicle” value (γ-H2AX [7]; IV 20 mg/kg, 6 h) was 109.81 ± 27.72% and the GI50 (DU-145 (Prostate); Homo sapiens) was 2710 nM. For the same molecule, the GI50 (DU-145 (Prostate)) was 2710 nM, the GI50 (HCT-116 (Colon)) was 1250 nM and the GI50 (HCT-116 (Colon); Homo sapiens) was 1250 nM. For the same molecule, the GI50 (HOP-62 (Lung); Homo sapiens) was 420 nM, the GI50 (HOP-62 (Lung)) was 420 nM and the GI50 (MCF7 (Breast)) was 260 nM. It also gave a GI50 (MCF7 (Breast); Homo sapiens) of 260 nM, a GI50 (OVCAR-3 (Ovarian); Homo sapiens) of 5650 nM and a GI50 (OVCAR-3 (Ovarian)) of 5650 nM. For the same molecule, the GI50 (SN12C (Renal); Homo sapiens) was 3940 nM, the GI50 (SN12C (Renal)) was 3940 nM and the GI50 (UACC-62 (Melanoma); Homo sapiens) was 2380 nM. For the same molecule, the GI50 (UACC-62 (Melanoma)) was 2380 nM, the GI50 (SF-539 (CNS)) was 1000 nM and the GI50 (NCI-60 cancer cell lines) was 2950 nM. For the same molecule, the “% Stability at 6 hrs” value [8] was 95.42% and the Vd (in vivo) was 29 L/kg.
